Results reported in patent US8609836B2, “4-aryl-2-anilino-pyrimidines” (Janssen Pharmaceutica NV, priority 2008, dated 2013).

Legend:
[1] = molecular target: GSK3β (h) (Homo sapiens, UniProt P49841); assay: GSK-3β human kinase inhibition, SPA; assay type: biochemical; conditions: read-out: GSK3b pIC50 (converted)
Procedure, shortened: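 Scintillation proximity assay: GSK3β (1 μg/ml) with 1 μM biotinylated peptide, 1 μM ATP plus [γ-33P]ATP in Tris pH 7.4, MgCl2, DTT. 60 min at room temperature, stopped with EDTA and streptavidin PVT beads; phosphorylation read by Leadseeker imaging.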

[2] = molecular target: CDK4/CyclinD1 (h) (Homo sapiens, UniProt P11802); assay: CDK4/CyclinD1 human kinase inhibition, SPA with GST-pRb substrate; assay type: biochemical; conditions: read-out: CDK4 pIC50 (converted)
Procedure, shortened: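 Human CDK4/CyclinD1 (2.5 μg/ml) was incubated with 40 μg/ml GST-pRb and 2 nM [γ-33P]ATP in 50 mM Hepes pH 7.5, 8 mM NaF, 20 mM MgCl2, 1 mM DTT for 60 min at room temperature. EDTA stop with glutathione SPA beads; phosphorylation read by scintillation counting.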

[3] = molecular target: PLK1 T210D (h) (Homo sapiens, UniProt P53350, T210D); assay: PLK1 human kinase inhibition, SPA; assay type: biochemical; conditions: read-out: PLK1 pIC50 (converted)
Procedure, shortened: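 Radiometric SPA with PLK1 T210D (0.125 ng/ml) in 50 mM Hepes pH 8.0, 2 mM MnCl2, 1 mM DTT, 2 μM biotinylated peptide, 0.1 μM ATP plus 2 nM [γ-33P]ATP. 40 min at room temperature, EDTA stop. Phosphorylated substrate captured on streptavidin PVT beads, scintillation imaged.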

[4] = molecular target: PLK2 (h) (Homo sapiens, UniProt Q9NYY3); assay: PLK2 human kinase inhibition, SPA; assay type: biochemical; conditions: read-out: PLK2 pIC50 (converted)
Procedure, shortened: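 SPA read on Leadseeker: PLK2 (30 μg/ml) with 2 μM biotinylated peptide, 0.1 μM ATP plus 2 nM [γ-33P]ATP in 50 mM Hepes pH 8.0, 2 mM MnCl2, 1 mM DTT. Reaction ran 20 min at room temperature, then EDTA stop and streptavidin PVT beads.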

[5] = molecular target: PLK3 (h) (Homo sapiens, UniProt Q9H4B4); assay: PLK3 human kinase inhibition, SPA; assay type: biochemical; conditions: read-out: PLK3 pIC50 (converted)
Procedure, shortened: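 SPA: PLK3 (h) at 30 μg/ml with 2 μM biotinylated peptide, 0.1 μM ATP plus 2 nM [γ-33P]ATP in 50 mM Hepes pH 8.0, 2 mM MnCl2 and 1 mM DTT. Incubated 20 min at room temperature, then stopped with EDTA and streptavidin PVT beads. Scintillation imaged on Leadseeker.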

[6] = tested on: HCT-116; assay: Cellular proliferation assay (Alamar blue), HCT-116; assay type: cell-based; conditions: Homo sapiens, 10% FCS, 72 hours with compound, Alamar blue 4 h
Procedure, shortened: (§1)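 Proliferation in 10% FCS over a 72 h compound treatment, read as viable cell number by Alamar blue fluorescence and calculated against untreated control cells. Dye time varied by line: 6 h U87-MG, 4 h HCT-116, 24 h A2780 and MDA-MB-231.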

[7] = tested on: H1299; assay: Cellular proliferation assay (Alamar blue), H1299; assay type: cell-based; conditions: Homo sapiens, NCI-H1299; 10% FCS; 72 hours with compound; Alamar blue 4 h
Procedure, shortened: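 This proliferation assay on NCI-H1299 cells used an initial 24-hour compound-free incubation after seeding, followed by 72 hours of compound treatment with 10% FCS serum at 37° C. and 5% (v/v) CO2. Viable cells were quantified by a 4 h Alamar blue incubation and fluorescent plate reading at 544 nm/590 nm, and effects were expressed relative to control cells.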

[8] = tested on: U87-MG; assay: Cellular proliferation assay (Alamar blue), U87-MG; assay type: cell-based; conditions: Homo sapiens, U-87 MG; 10% FCS; 72 hours with compound; Alamar blue 6 h; read-out: U87-MG (cellular proliferation assay, Table 4) (converted)
Procedure, shortened: as §1

[9] = tested on: A2780; assay: Cellular proliferation assay (Alamar blue), A2780; assay type: cell-based; conditions: Homo sapiens, 10% FCS, 72 hours with compound, Alamar blue 24 h, read-out: A2780 (cellular proliferation assay, Table 4) (converted)
Procedure, shortened: as §1

Sequence of PLK1 T210D (h) (P53350 whole entry T210D): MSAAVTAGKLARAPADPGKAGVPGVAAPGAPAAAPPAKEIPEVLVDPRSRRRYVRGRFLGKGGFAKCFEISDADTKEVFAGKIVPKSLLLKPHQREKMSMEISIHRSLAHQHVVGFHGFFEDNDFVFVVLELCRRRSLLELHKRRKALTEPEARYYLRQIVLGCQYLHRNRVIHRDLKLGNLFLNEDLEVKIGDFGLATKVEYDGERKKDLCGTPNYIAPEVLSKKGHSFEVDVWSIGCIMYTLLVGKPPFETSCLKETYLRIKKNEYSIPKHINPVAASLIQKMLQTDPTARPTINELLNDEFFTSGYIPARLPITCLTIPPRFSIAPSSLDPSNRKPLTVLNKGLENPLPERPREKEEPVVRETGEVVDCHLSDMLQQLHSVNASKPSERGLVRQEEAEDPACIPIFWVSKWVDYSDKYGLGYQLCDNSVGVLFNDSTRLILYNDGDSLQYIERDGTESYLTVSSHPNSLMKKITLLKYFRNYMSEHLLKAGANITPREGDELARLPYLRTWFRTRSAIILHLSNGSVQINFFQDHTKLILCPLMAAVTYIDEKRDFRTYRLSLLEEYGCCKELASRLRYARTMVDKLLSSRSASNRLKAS
Sequence of GSK3β (h) (P49841 whole entry): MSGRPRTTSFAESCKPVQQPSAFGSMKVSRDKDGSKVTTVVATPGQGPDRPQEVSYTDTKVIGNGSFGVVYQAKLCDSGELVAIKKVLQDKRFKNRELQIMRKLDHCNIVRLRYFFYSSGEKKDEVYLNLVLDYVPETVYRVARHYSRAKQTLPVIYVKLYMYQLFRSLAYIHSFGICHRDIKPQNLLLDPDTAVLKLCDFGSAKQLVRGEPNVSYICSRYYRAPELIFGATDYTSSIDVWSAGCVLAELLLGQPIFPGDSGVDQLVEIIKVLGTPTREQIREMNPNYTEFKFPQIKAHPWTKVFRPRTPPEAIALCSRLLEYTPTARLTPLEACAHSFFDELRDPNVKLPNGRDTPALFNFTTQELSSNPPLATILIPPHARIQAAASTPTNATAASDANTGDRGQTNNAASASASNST
Sequence of CDK4/CyclinD1 (h) (P11802 whole entry): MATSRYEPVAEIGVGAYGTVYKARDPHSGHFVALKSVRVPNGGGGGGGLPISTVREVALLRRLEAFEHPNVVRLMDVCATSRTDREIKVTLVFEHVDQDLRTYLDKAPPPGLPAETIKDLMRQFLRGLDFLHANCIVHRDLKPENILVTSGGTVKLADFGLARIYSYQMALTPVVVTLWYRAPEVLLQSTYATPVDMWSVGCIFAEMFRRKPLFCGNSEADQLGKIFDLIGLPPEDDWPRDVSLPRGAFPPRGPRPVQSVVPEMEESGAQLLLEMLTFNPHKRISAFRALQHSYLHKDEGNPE
Sequence of CDK4/CyclinD1 (h) (P24385 whole entry partner): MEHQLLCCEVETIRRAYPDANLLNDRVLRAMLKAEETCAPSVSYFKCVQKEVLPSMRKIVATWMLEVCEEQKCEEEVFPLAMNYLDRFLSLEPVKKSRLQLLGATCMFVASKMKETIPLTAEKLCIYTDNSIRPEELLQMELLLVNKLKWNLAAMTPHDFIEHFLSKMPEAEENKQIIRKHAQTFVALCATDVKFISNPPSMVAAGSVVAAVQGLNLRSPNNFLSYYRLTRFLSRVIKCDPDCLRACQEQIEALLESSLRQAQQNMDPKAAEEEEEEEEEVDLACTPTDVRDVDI
Sequence of PLK2 (h) (Q9NYY3 whole entry): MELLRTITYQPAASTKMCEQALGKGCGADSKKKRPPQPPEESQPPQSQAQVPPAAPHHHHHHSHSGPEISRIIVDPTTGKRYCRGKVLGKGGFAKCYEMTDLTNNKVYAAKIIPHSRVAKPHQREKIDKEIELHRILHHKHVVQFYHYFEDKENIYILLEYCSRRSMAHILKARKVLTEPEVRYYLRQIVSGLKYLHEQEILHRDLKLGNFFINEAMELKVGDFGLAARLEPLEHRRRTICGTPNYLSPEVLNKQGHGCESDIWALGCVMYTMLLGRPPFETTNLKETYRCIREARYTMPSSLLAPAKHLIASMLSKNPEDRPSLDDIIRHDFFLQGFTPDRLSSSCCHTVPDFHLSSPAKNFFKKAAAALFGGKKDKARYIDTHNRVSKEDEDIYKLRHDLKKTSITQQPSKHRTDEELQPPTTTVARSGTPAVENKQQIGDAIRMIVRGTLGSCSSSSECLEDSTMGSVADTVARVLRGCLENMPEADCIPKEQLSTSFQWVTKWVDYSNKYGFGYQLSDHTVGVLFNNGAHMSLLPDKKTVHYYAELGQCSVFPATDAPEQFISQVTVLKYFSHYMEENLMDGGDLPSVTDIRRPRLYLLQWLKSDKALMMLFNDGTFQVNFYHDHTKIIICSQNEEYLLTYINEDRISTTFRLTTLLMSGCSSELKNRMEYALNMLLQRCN
Sequence of PLK3 (h) (Q9H4B4 whole entry): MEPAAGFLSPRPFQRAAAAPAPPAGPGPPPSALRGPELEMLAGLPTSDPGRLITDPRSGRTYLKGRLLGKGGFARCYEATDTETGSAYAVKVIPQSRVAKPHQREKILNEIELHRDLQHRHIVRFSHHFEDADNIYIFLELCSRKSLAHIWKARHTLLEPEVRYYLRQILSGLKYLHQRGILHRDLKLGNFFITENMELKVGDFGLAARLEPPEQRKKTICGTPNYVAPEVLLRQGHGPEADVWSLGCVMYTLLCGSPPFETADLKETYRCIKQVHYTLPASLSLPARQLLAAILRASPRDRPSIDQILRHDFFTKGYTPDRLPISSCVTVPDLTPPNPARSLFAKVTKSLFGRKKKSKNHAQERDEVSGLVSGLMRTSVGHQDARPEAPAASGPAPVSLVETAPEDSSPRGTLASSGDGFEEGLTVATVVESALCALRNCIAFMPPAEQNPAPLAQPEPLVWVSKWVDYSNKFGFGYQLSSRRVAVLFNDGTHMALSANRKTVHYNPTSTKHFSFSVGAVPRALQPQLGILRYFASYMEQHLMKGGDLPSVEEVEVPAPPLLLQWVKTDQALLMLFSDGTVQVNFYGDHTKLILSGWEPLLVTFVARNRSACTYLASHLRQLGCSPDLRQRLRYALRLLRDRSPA

SMILES	IC50 [1] [µM]	IC50 [2] [µM]	IC50 [3] [µM]	IC50 [4] [µM]	IC50 [5] [µM]	IC50 [6] [µM]	IC50 [7] [µM]	IC50 [8] [µM]	IC50 [9] [µM]
CN1CCNC(=O)[C@H](CO)NCc2cccc(c2)Nc2nccc(n2)-c2ccc(cc2)C1 [Compound 114]	2.82	> 10	> 10	~3.02	> 10	> 10	> 10	> 10	> 10
O=C1NCc2cccc(c2)-c2ccnc(n2)Nc2cccc(c2)CN2CCC1CC2 [Compound 124]	0.457	1.7	> 10	> 10	> 10	2.88	> 10	6.03	> 10
COc1cc2cc(c1)Nc1nccc(n1)-c1ccc(OC)c(c1)CN(C)CCNC(=O)CN1CCN(CC1)C2 [Compound 127]	5.01	> 10	> 10	> 10	> 10	6.46	> 10	> 10	> 10
COc1ccc2cc1CN(C)CCNC(=O)CN1CCN(CC1)Cc1cc(NCCc3ccccc3)cc(c1)Nc1nccc-2n1 [Compound 138]	> 10	> 10	> 10	> 3.02	> 10	3.09	10	3.24	5.5
COc1cc2cc(c1)Nc1nccc(n1)-c1ccc(OC)c(c1)CN(C)CCCNC(=O)CN1CCN(CC1)C2 [Compound 140]	7.41	> 10	> 10	> 10	> 10	1.55	> 10	4.07	> 10
CC(C)Nc1cc2cc(c1)Nc1nccc(n1)-c1ccc(cc1)CN(C)CCCNC(=O)[C@@H]1CCCN1C2 [Compound 151]	> 10	> 10	> 10	> 3.02	> 10	3.55	> 10	7.59	> 10
CN1CCNC(=O)[C@@H]2CCCN2Cc2cc(cc(N3CCOCC3)c2)Nc2nccc(n2)-c2ccc(cc2)C1 [Compound 154]	> 10	> 10	> 10	> 3.02	> 10	> 10	> 10	> 10	> 10
COc1cc2cc(c1)Nc1nccc(n1)-c1ccc(cc1)CN(C)CCCNC(=O)[C@@H]1CCCN1C2 [Compound 156]	> 10	> 10	> 10	> 3.02	8.51	> 10	> 10	> 10	> 10
O=C1NCCNCc2ccc(cc2)-c2ccnc(n2)Nc2ccc(N3CCOCC3)c(c2)CN2CCC[C@@H]12 [Compound 157]	6.61	> 10	> 10	> 10	9.55	6.46	5.13	> 10	6.46
COc1cc2cc(c1)Nc1nccc(n1)-c1ccc(cc1)CN(C)CCNC(=O)[C@@H]1CCCN1C2 [Compound 158]	> 10	> 10	> 10	> 3.02	7.08	> 10	> 10	> 10	> 10
CN1CCNC(=O)[C@@H]2CCCN2Cc2cccc(c2)Nc2nccc(n2)-c2ccc(cc2)C1 [Compound 160]	5.5	> 10	> 10	> 3.02	9.33	> 10	> 10	> 10	> 10

Further lines, results first:

IC50 [1] [µM]	IC50 [2] [µM]	IC50 [3] [µM]	IC50 [4] [µM]	IC50 [5] [µM]	IC50 [6] [µM]	IC50 [7] [µM]	IC50 [8] [µM]	IC50 [9] [µM]	SMILES
> 10	> 10	> 10	> 3.02	> 10	> 10	> 10	> 10	> 10	COc1ccc2cc1CN(C)CCCNC(=O)[C@H](CO)NCc1cccc(c1)Nc1nccc-2n1 [Compound 118]
6.03	> 10	> 10	> 10	> 10	2.29	> 10	8.71	> 10	COc1ccc2cc1CN(C)CCNC(=O)[C@H](CO)NCc1cc(Br)cc(c1)Nc1nccc-2n1 [Compound 119]
4.37	> 10	> 10	> 10	> 10	5.25	> 10	> 10	> 10	CC(C)Nc1cc2cc(c1)Nc1nccc(n1)-c1ccc(cc1)CN(C)CCCNC(=O)CN1CCN(CC1)C2 [Compound 131]
2	> 10	> 10	> 3.02	> 10	5.89	> 10	8.71	> 10	COc1cc2cc(c1)Nc1nccc(n1)-c1ccc(cc1)CN(C)CCNC(=O)CN1CCN(CC1)C2 [Compound 132]
1.32	> 10	> 10	2.88	> 10	5.25	> 10	> 10	> 10	CN1CCNC(=O)CN2CCN(CC2)Cc2cccc(c2)Nc2nccc(n2)-c2ccc(cc2)C1 [Compound 134]
0.117	0.0724	> 10	> 10	> 10	0.117	0.832	0.251	0.245	O=C1NCc2cc(ccc2N2CCOCC2)Nc2nccc(n2)-c2cccc(c2)CCCN2CCC[C@@H]12 [Compound 149]
5.13	> 10	> 10	> 10	> 10	> 10	> 10	> 10	> 10	COc1ccc2cc1CN(C)CCNC(=O)[C@@H]1CCCN1Cc1cc(cc(N3CCOCC3)c1)Nc1nccc-2n1 [Compound 152]
8.32	> 10	> 10	> 3.02	> 10	> 10	> 10	> 10	> 10	COc1cc2cc(c1)Nc1nccc(n1)-c1ccc(OC)c(c1)CN(C)CCNC(=O)[C@@H]1CCCN1C2 [Compound 162]
> 10	> 10	> 10	> 10	> 10	4.17	> 10	6.92	6.61	COc1ccc2cc1CN(C)CCNC(=O)[C@@H]1CCCN1Cc1cc(NCCc3ccccc3)cc(c1)Nc1nccc-2n1 [Compound 163]
> 10	> 10	> 10	> 10	> 10	5.62	> 10	6.17	> 10	COc1ccc2cc1CN(C)CCNC(=O)[C@@H]1CCCN1Cc1cc(cc(NC(C)C)c1)Nc1nccc-2n1 [Compound 165]
> 10	> 10	> 10	> 10	> 10	2.24	> 10	3.72	2.75	COc1ccc2cc1CN(C)CCCNC(=O)[C@@H]1CCCN1Cc1cc(NCCc3ccccc3)cc(c1)Nc1nccc-2n1 [Compound 167]
